In US9757393B2 (priority 2015, dated 2017):

Columns and labels:
HFD-fed C57BL/6J mice [1] = test: Body weight, food intake and tissue weight in HFD-fed mice; assay type: in vivo; conditions: for Absolute Tissue Weight BAT / Absolute Tissue Weight EWAT / Absolute Tissue Weight Liver / Absolute Tissue Weight MWAT / Absolute Tissue Weight RWAT / Absolute Tissue Weight Skeletal muscle / weight gain: oral gavage daily for 4 weeks; for weight of visceral fat: vs HF group
Description: (§1) Experimental Animals: the experiments are conducted under the guidelines of the Institutional Animal Care and Use Committee of Central Taiwan University of Science and Technology. As previously described, four-week-old male C57BL/6J mice (n=63) is purchased from the National Laboratory Animal Breeding and Research Center, Ministry of Science and Technology. After 1-week of acclimatization, mice are designed to initiate the study, and the study lasts for 12 weeks. […] The CON group and high-fat control (HF) group are given with vehicle only. The low-fat diet consisted of fat 10%, whereas the high-fat diet (HFD) consisted of fat 45% (of total energy, % kcal). The compositions of the experimental diets are shown as described. At the end of the study, food is derived from the animals (from 10 p.m. to 10 a.m.). On the next day, the mice are sacrificed, and blood and tissue are collected for analysis. Livers, skeletal muscles, and white adipose tissues (WATs) (including epididymal, mesenteric and retroperitoneal WAT) are excised and weighed, and then immediately stored in a freezer at −80° C. Heparin (30 units/mL) (Sigma) is added to blood samples. Plasma samples are collected by centrifugation at 1600 g for 15 min at 4° C. within 30 min, and plasma is obtained for insulin and leptin level analysis.
Body Weight, Food Intake and Tissue Weight. Throughout the embodiment, body weight and food intake are daily recorded at the same time. Body weight gain is defined as the difference between 1 day and the next day. The pellet food is weighed and placed in a cage food container. After 24 h, the remaining food is weighed and the crumbs are collected as much as possible. Based on the difference between 1 day and the next day, the daily food intake is calculated.

adiponectin mRNA = test: Semiquantitative RT-PCR, liver tissue: adiponectin; assay type: in vivo, C57BL/6J mice; conditions: HFD-fed mice, 40 mg/kg/day
Description: as §1, with “Heparin (30 units/mL) (Sigma) is added to blood samples. Plasma samples are collected by centrifugation at 1600 g for 15 min at 4° C. within 30 min, and plasma is obtained for insulin and leptin level analysis.” left out
The experiment is performed as in a previously described protocol. […] The relative density of the band is evaluated using AlphaDigiDoc 1201 software (Alpha Innotech Co., San Leandro, Calif., USA). All of the measured PCR products are normalized to the amount of cDNA of GAPDH in each sample.

HFD-fed C57BL/6J mice [2] = test: Hepatic lipid in HFD-fed mice; assay type: in vivo; conditions: oral gavage daily for 4 weeks
Description: as §1
Blood Lipid and Hepatic Lipid. Hepatic lipids are extracted as previously described. Liver sample (0.375 g) is homogenized with 1 mL of distilled water for 5 min for the hepatic lipid extraction and analyzed using a triglycerides kit as used for serum lipids.

SREBP2 mRNA = test: Semiquantitative RT-PCR, liver tissue: SREBP2; assay type: in vivo, C57BL/6J mice; conditions: HFD-fed mice
Description: as §1
(§2) The experiment is performed as in a previously described protocol. Total RNA from the liver tissue is isolated with a Trizol reagent (Molecular Research Center, Inc., Cincinnati, Ohio, USA) according to the manufacturer's directions. Total RNA (1 μg) is reverse transcribed to cDNA with 5 μL of Moloney murine leukemia virus reverse transcriptase (Epicenter, Madison, Wis., USA) as a previously described protocol. […] The relative density of the band is evaluated using AlphaDigiDoc 1201 software (Alpha Innotech Co., San Leandro, Calif., USA). All of the measured PCR products are normalized to the amount of cDNA of GAPDH in each sample.

apo C-III mRNA = test: Semiquantitative RT-PCR, liver tissue: apo C-III; assay type: in vivo, C57BL/6J mice; conditions: HFD-fed mice
Description: as §1, §2

PEPCK mRNA = test: Semiquantitative RT-PCR, liver tissue: PEPCK; assay type: in vivo, C57BL/6J mice; conditions: HFD-fed mice
Description: as §1, §2

apo A-I mRNA = test: Semiquantitative RT-PCR, liver tissue: apo A-I; assay type: in vivo, C57BL/6J mice; conditions: HFD-fed mice
Description: as §1, §2

SREBP1c mRNA = test: Semiquantitative RT-PCR, liver tissue: SREBP1c; assay type: in vivo, C57BL/6J mice; conditions: HFD-fed mice
Description: as §1, §2

CC(C)[C@@H](C)C=C[C@@H](C)[C@H]1CC[C@H]2C3=CCC4C[C@@H](O)CC[C@]4(C)C3=CC[C@]12C (stereo partly drawn) [ergostatrien-3β-ol, ergosta-7,9(11),22-trien-3β-ol]
food intake (consumption of high-fat diet) (HFD-fed C57BL/6J mice [1]; all treated groups compared with HF mice): similarly
Absolute Tissue Weight BAT (HFD-fed C57BL/6J mice [1]; 10 mg/kg/day): 0.160 ± 0.007 g
Absolute Tissue Weight EWAT (HFD-fed C57BL/6J mice [1]; 10 mg/kg/day): 0.853 ± 0.031 g
Absolute Tissue Weight Liver (HFD-fed C57BL/6J mice [1]; 10 mg/kg/day): 0.813 ± 0.025 g
Absolute Tissue Weight MWAT (HFD-fed C57BL/6J mice [1]; 10 mg/kg/day): 0.276 ± 0.032 g
Absolute Tissue Weight RWAT (HFD-fed C57BL/6J mice [1]; 10 mg/kg/day): 0.281 ± 0.016 g
Absolute Tissue Weight Skeletal muscle (HFD-fed C57BL/6J mice [1]; 10 mg/kg/day): 0.781 ± 0.034 g
weight gain (HFD-fed C57BL/6J mice [1]; 10 mg/kg/day): 1.30 ± 0.39 g
Absolute Tissue Weight BAT (HFD-fed C57BL/6J mice [1]; 20 mg/kg/day): 0.143 ± 0.016 g
Absolute Tissue Weight EWAT (HFD-fed C57BL/6J mice [1]; 20 mg/kg/day): 0.774 ± 0.057 g
Absolute Tissue Weight Liver (HFD-fed C57BL/6J mice [1]; 20 mg/kg/day): 0.819 ± 0.025 g
Absolute Tissue Weight MWAT (HFD-fed C57BL/6J mice [1]; 20 mg/kg/day): 0.276 ± 0.032 g
Absolute Tissue Weight RWAT (HFD-fed C57BL/6J mice [1]; 20 mg/kg/day): 0.283 ± 0.025 g
Absolute Tissue Weight Skeletal muscle (HFD-fed C57BL/6J mice [1]; 20 mg/kg/day): 1.167 ± 0.045 g
weight gain (HFD-fed C57BL/6J mice [1]; 20 mg/kg/day): 1.13 ± 0.20 g
Absolute Tissue Weight BAT (HFD-fed C57BL/6J mice [1]; 40 mg/kg/day): 0.144 ± 0.013 g
Absolute Tissue Weight EWAT (HFD-fed C57BL/6J mice [1]; 40 mg/kg/day): 0.736 ± 0.070 g
Absolute Tissue Weight Liver (HFD-fed C57BL/6J mice [1]; 40 mg/kg/day): 0.796 ± 0.041 g
Absolute Tissue Weight MWAT (HFD-fed C57BL/6J mice [1]; 40 mg/kg/day): 0.244 ± 0.024 g
Absolute Tissue Weight RWAT (HFD-fed C57BL/6J mice [1]; 40 mg/kg/day): 0.243 ± 0.041 g
Absolute Tissue Weight Skeletal muscle (HFD-fed C57BL/6J mice [1]; 40 mg/kg/day): 1.351 ± 0.153 g
weight gain (HFD-fed C57BL/6J mice [1]; 40 mg/kg/day): 0.37 ± 0.38 g
weight of visceral fat (HFD-fed C57BL/6J mice [1]; 10 mg/kg/day): decrease
weight of visceral fat (HFD-fed C57BL/6J mice [1]; 20 mg/kg/day): decrease
weight of visceral fat (HFD-fed C57BL/6J mice [1]; 40 mg/kg/day): decrease
mRNA level of adiponectin (adiponectin mRNA): increase
Liver Lipids total lipid (HFD-fed C57BL/6J mice [2]; 10 mg/kg/day): 72.4 ± 3.7 mg/g
Liver Lipids triacylglycerol (HFD-fed C57BL/6J mice [2]; 10 mg/kg/day): 57.3 ± 5.5 µmol/g
Liver Lipids total lipid (HFD-fed C57BL/6J mice [2]; 20 mg/kg/day): 68.0 ± 4.5 mg/g
Liver Lipids triacylglycerol (HFD-fed C57BL/6J mice [2]; 20 mg/kg/day): 44.5 ± 4.7 µmol/g
Liver Lipids total lipid (HFD-fed C57BL/6J mice [2]; 40 mg/kg/day): 65.4 ± 4.2 mg/g
Liver Lipids triacylglycerol (HFD-fed C57BL/6J mice [2]; 40 mg/kg/day): 43.7 ± 6.6 µmol/g
mRNA level of SREBP2 (SREBP2 mRNA; 10 mg/kg/day): decreased
mRNA level of SREBP2 (SREBP2 mRNA; 20 mg/kg/day): decreased
mRNA level of SREBP2 (SREBP2 mRNA; 40 mg/kg/day): decreased
mRNA level of apo C-III (apo C-III mRNA; 10 mg/kg/day): decreased
mRNA level of apo C-III (apo C-III mRNA; 20 mg/kg/day): decreased
mRNA level of apo C-III (apo C-III mRNA; 40 mg/kg/day): decreased
mRNA level of PEPCK (PEPCK mRNA; 10 mg/kg/day): decreased
mRNA level of PEPCK (PEPCK mRNA; 20 mg/kg/day): decreased
mRNA level of PEPCK (PEPCK mRNA; 40 mg/kg/day): decreased
mRNA levels of apolipoprotein A-I (apo A-I) (apo A-I mRNA; 10 mg/kg/day): increased
mRNA levels of apolipoprotein A-I (apo A-I) (apo A-I mRNA; 20 mg/kg/day): increased
mRNA levels of apolipoprotein A-I (apo A-I) (apo A-I mRNA; 40 mg/kg/day): increased
mRNA level of SREBP1c (SREBP1c mRNA; 10 mg/kg/day): decreased
mRNA level of SREBP1c (SREBP1c mRNA; 20 mg/kg/day): decreased
mRNA level of SREBP1c (SREBP1c mRNA; 40 mg/kg/day): decreased
